# Test results from publication PMC11993615, “Design, synthesis and optimization of TarO inhibitors as multifunctional antibiotics against Methicillin-resistant Staphylococcus aureus” (npj Antimicrobials and Resistance, 2025).
# Tested on: bacteria
# Assay: MIC determination, positive control (strain not stated)
# Conditions: 24 h
compound,measurement,value
CN[C@H](CC(C)C)C(=O)N[C@H]1C(=O)N[C@@H](CC(N)=O)C(=O)N[C@H]2C(=O)N[C@H]3C(=O)N[C@H](C(=O)N[C@H](C(=O)O)c4cc(O)cc(O)c4-c4cc3ccc4O)[C@H](O)c3ccc(c(Cl)c3)Oc3cc2cc(c3O[C@@H]2O[C@H](CO)[C@@H](O)[C@H](O)[C@H]2O[C@H]2C[C@](C)(N)[C@H](O)[C@H](C)O2)Oc2ccc(cc2Cl)[C@H]1O [vancomycin],MIC,1 µg/mL
